Laboratory results from ChEMBL document CHEMBL5724806, “Unraveling interindividual differences and functional consequences of gut microbial metabolism of immunosuppressants” (2024).

Legend:
Type in all cases: ADME
[1] = (§1) The drug is tested on Actinomyces naeslundi strain: DSM43013 for biotransformation under anaerobic condition. The drug concentrations were measured over 6 timepoints collected between 0 and 12 hours of incubation by liquid-chromatography-coupled mass spectrometry (LC–MS); parameters: dose 5 uM, timepoint 0, 1.5, 3, 6, 9, 12 hours; conditions: actinomyces naeslundii, 5 µM
[2] = The drug is tested on Gemella haemolysans strain: DSM107751 for biotransformation under anaerobic condition. The drug concentrations were measured over 6 timepoints collected between 0 and 12 hours of incubation by liquid-chromatography-coupled mass spectrometry (LC–MS); parameters: dose 5 uM, timepoint 0, 1.5, 3, 6, 9, 12 hours; conditions: 5 µM
[3] = as §1, with “the gut metagenome community of A-10 with ENA study accession number: PRJEB31790” for “Actinomyces naeslundi strain: DSM43013”, “7” for “6”; parameters: dose 5 uM, timepoint 0, 0.75, 1.5, 3, 6, 9, 12 hours; conditions: 5 µM
[4] = The drug is tested on Collinsella aerofaciens strain: DSM3979 for biotransformation under anaerobic condition. The drug concentrations were measured over 6 timepoints collected between 0 and 12 hours of incubation by liquid-chromatography-coupled mass spectrometry (LC–MS); parameters: dose 5 uM, timepoint 0, 1.5, 3, 6, 9, 12 hours; conditions: 5 µM
[5] = The drug is tested on Streptococcus salivarius strain: DSM20560 for biotransformation under anaerobic condition. The drug concentrations were measured over 6 timepoints collected between 0 and 12 hours of incubation by liquid-chromatography-coupled mass spectrometry (LC–MS); parameters: dose 5 uM, timepoint 0, 1.5, 3, 6, 9, 12 hours; conditions: 5 µM
[6] = The drug is tested on Bacteroides xylanisolvens strain: HM 722 for biotransformation under anaerobic condition. The drug concentrations were measured over 6 timepoints collected between 0 and 12 hours of incubation by liquid-chromatography-coupled mass spectrometry (LC–MS); parameters: dose 5 uM, timepoint 0, 1.5, 3, 6, 9, 12 hours; conditions: 5 µM
[7] = (§2) The drug is tested on Gemella haemolysans strain: DSM107751 for biotransformation under microaerobic condition. The drug concentrations were measured over 6 timepoints collected between 0 and 12 hours of incubation by liquid-chromatography-coupled mass spectrometry (LC–MS); parameters: dose 5 uM, timepoint 0, 1.5, 3, 6, 9, 12 hours; conditions: 5 µM
[8] = The drug is tested on Eubacterium hallii strain: DSM3353 for biotransformation under anaerobic condition. The drug concentrations were measured over 6 timepoints collected between 0 and 12 hours of incubation by liquid-chromatography-coupled mass spectrometry (LC–MS); parameters: dose 5 uM, timepoint 0, 1.5, 3, 6, 9, 12 hours; conditions: anaerobutyricum hallii, 5 µM
[9] = The drug is tested on Bifidobacterium longum strain: DSM20088 for biotransformation under anaerobic condition. The drug concentrations were measured over 6 timepoints collected between 0 and 12 hours of incubation by liquid-chromatography-coupled mass spectrometry (LC–MS); parameters: dose 5 uM, timepoint 0, 1.5, 3, 6, 9, 12 hours; conditions: 5 µM
[10] = as §1, with “the gut metagenome community of A-05 with ENA study accession number: PRJEB31790” for “Actinomyces naeslundi strain: DSM43013”, “7” for “6”; parameters: dose 5 uM, timepoint 0, 0.75, 1.5, 3, 6, 9, 12 hours; conditions: 5 µM
[11] = as §2, with “the gut metagenome community of A-02 with ENA study accession number: PRJEB31790” for “Gemella haemolysans strain: DSM107751”, “7” for “6”; parameters: dose 5 uM, timepoint 0, 0.75, 1.5, 3, 6, 9, 12 hours; conditions: 5 µM
[12] = The drug is tested on Streptococcus sanguinis strain: DSM20567 for biotransformation under anaerobic condition. The drug concentrations were measured over 6 timepoints collected between 0 and 12 hours of incubation by liquid-chromatography-coupled mass spectrometry (LC–MS); parameters: dose 5 uM, timepoint 0, 1.5, 3, 6, 9, 12 hours; conditions: 5 µM
[13] = The drug is tested on Lactobacillus paracasei strain: ATCC27092 for biotransformation under microaerobic condition. The drug concentrations were measured over 6 timepoints collected between 0 and 12 hours of incubation by liquid-chromatography-coupled mass spectrometry (LC–MS); parameters: dose 5 uM, timepoint 0, 1.5, 3, 6, 9, 12 hours; conditions: lacticaseibacillus paracasei, 5 µM
[14] = The drug is tested on Gemella morbillorum strain: DSM20572 for biotransformation under anaerobic condition. The drug concentrations were measured over 6 timepoints collected between 0 and 12 hours of incubation by liquid-chromatography-coupled mass spectrometry (LC–MS); parameters: dose 5 uM, timepoint 0, 1.5, 3, 6, 9, 12 hours; conditions: 5 µM
[15] = as §2, with “the gut metagenome community of P-02 with ENA study accession number: PRJEB31790” for “Gemella haemolysans strain: DSM107751”, “7” for “6”; parameters: dose 5 uM, timepoint 0, 0.75, 1.5, 3, 6, 9, 12 hours; conditions: 5 µM
[16] = as §1, with “the gut metagenome community of P-01 with ENA study accession number: PRJEB31790” for “Actinomyces naeslundi strain: DSM43013”, “7” for “6”; parameters: dose 5 uM, timepoint 0, 0.75, 1.5, 3, 6, 9, 12 hours; conditions: 5 µM
[17] = as §2, with “the gut metagenome community of P-04 with ENA study accession number: PRJEB31790” for “Gemella haemolysans strain: DSM107751”, “7” for “6”; parameters: dose 5 uM, timepoint 0, 0.75, 1.5, 3, 6, 9, 12 hours; conditions: 5 µM
[18] = The drug is tested on Clostridium ramosum strain: DSM1402 for biotransformation under anaerobic condition. The drug concentrations were measured over 6 timepoints collected between 0 and 12 hours of incubation by liquid-chromatography-coupled mass spectrometry (LC–MS); parameters: dose 5 uM, timepoint 0, 1.5, 3, 6, 9, 12 hours; conditions: thomasclavelia ramosa, 5 µM
[19] = The drug is tested on Blautia hansenii strain: DSM20583 for biotransformation under anaerobic condition. The drug concentrations were measured over 6 timepoints collected between 0 and 12 hours of incubation by liquid-chromatography-coupled mass spectrometry (LC–MS); parameters: dose 5 uM, timepoint 0, 1.5, 3, 6, 9, 12 hours; conditions: 5 µM
[20] = The drug is tested on Akkermansia muciniphila strain: DSM22959 for biotransformation under anaerobic condition. The drug concentrations were measured over 6 timepoints collected between 0 and 12 hours of incubation by liquid-chromatography-coupled mass spectrometry (LC–MS); parameters: dose 5 uM, timepoint 0, 1.5, 3, 6, 9, 12 hours; conditions: 5 µM
[21] = as §1, with “the gut metagenome community of T-04 with ENA study accession number: PRJEB31790” for “Actinomyces naeslundi strain: DSM43013”, “7” for “6”; parameters: dose 5 uM, timepoint 0, 0.75, 1.5, 3, 6, 9, 12 hours; conditions: 5 µM
[22] = The drug is tested on Escherichia coli strain: DSM27469 for biotransformation under anaerobic condition. The drug concentrations were measured over 6 timepoints collected between 0 and 12 hours of incubation by liquid-chromatography-coupled mass spectrometry (LC–MS); parameters: dose 5 uM, timepoint 0, 1.5, 3, 6, 9, 12 hours; conditions: 5 µM
[23] = The drug is tested on Escherichia coli strain: DSM27469 for biotransformation under microaerobic condition. The drug concentrations were measured over 6 timepoints collected between 0 and 12 hours of incubation by liquid-chromatography-coupled mass spectrometry (LC–MS); parameters: dose 5 uM, timepoint 0, 1.5, 3, 6, 9, 12 hours; conditions: 5 µM
[24] = as §2, with “the gut metagenome community of A-08 with ENA study accession number: PRJEB31790” for “Gemella haemolysans strain: DSM107751”, “7” for “6”; parameters: dose 5 uM, timepoint 0, 0.75, 1.5, 3, 6, 9, 12 hours; conditions: 5 µM
[25] = The drug is tested on Roseburia intestinalis strain: DSM14610 for biotransformation under anaerobic condition. The drug concentrations were measured over 6 timepoints collected between 0 and 12 hours of incubation by liquid-chromatography-coupled mass spectrometry (LC–MS); parameters: dose 5 uM, timepoint 0, 1.5, 3, 6, 9, 12 hours; conditions: 5 µM
[26] = The drug is tested on Alloscardovia omnicolens strain: DSM21503 for biotransformation under anaerobic condition. The drug concentrations were measured over 6 timepoints collected between 0 and 12 hours of incubation by liquid-chromatography-coupled mass spectrometry (LC–MS); parameters: dose 5 uM, timepoint 0, 1.5, 3, 6, 9, 12 hours; conditions: 5 µM
[27] = as §2, with “the gut metagenome community of A-04 with ENA study accession number: PRJEB31790” for “Gemella haemolysans strain: DSM107751”, “7” for “6”; parameters: dose 5 uM, timepoint 0, 0.75, 1.5, 3, 6, 9, 12 hours; conditions: 5 µM
[28] = The drug is tested on Clostridium bolteae strain: DSM15670 for biotransformation under anaerobic condition. The drug concentrations were measured over 6 timepoints collected between 0 and 12 hours of incubation by liquid-chromatography-coupled mass spectrometry (LC–MS); parameters: dose 5 uM, timepoint 0, 1.5, 3, 6, 9, 12 hours; conditions: enterocloster bolteae, 5 µM
[29] = The drug is tested on Actinomyces graevenitzii strain: DSM15540 for biotransformation under microaerobic condition. The drug concentrations were measured over 6 timepoints collected between 0 and 12 hours of incubation by liquid-chromatography-coupled mass spectrometry (LC–MS); parameters: dose 5 uM, timepoint 0, 1.5, 3, 6, 9, 12 hours; conditions: 5 µM
[30] = as §1, with “the gut metagenome community of P-02 with ENA study accession number: PRJEB31790” for “Actinomyces naeslundi strain: DSM43013”, “7” for “6”; parameters: dose 5 uM, timepoint 0, 0.75, 1.5, 3, 6, 9, 12 hours; conditions: 5 µM

In the case of CCOc1nc2cccc(C(=O)O)c2n1Cc1ccc(-c2ccccc2-c2nnn[nH]2)cc1, the “Bacterial Biotransformation” value [1] is reported as “Compound NOT metabolized”, the “Bacterial Biotransformation” value [2] is reported as “Compound NOT metabolized” and the “Bacterial Biotransformation” value [3] is reported as “Compound NOT metabolized”. The “Bacterial Biotransformation” value [4] was “Compound NOT metabolized”, the “Bacterial Biotransformation” value [5] was “Compound NOT metabolized” and the “Bacterial Biotransformation” value [6] was “Compound NOT metabolized”. The “Bacterial Biotransformation” value [7] was “Compound NOT metabolized”, the “Bacterial Biotransformation” value [8] was “Compound NOT metabolized” and the “Bacterial Biotransformation” value [9] was “Compound NOT metabolized”. The “Bacterial Biotransformation” value [10] was “Compound NOT metabolized”, the “Bacterial Biotransformation” value [11] was “Compound NOT metabolized” and the “Bacterial Biotransformation” value [12] was “Compound NOT metabolized”. The “Bacterial Biotransformation” value [13] was “Compound NOT metabolized”, the “Bacterial Biotransformation” value [14] was “Compound NOT metabolized” and the “Bacterial Biotransformation” value [15] was “Compound NOT metabolized”. For the same compound, the “Bacterial Biotransformation” value [16] was “Compound NOT metabolized”, the “Bacterial Biotransformation” value [17] was “Compound NOT metabolized” and the “Bacterial Biotransformation” value [18] was “Compound NOT metabolized”. The “Bacterial Biotransformation” value [19] was “Compound NOT metabolized”, the “Bacterial Biotransformation” value [20] was “Compound NOT metabolized” and the “Bacterial Biotransformation” value [21] was “Compound NOT metabolized”. For the same compound, the “Bacterial Biotransformation” value [22] was “Compound NOT metabolized”, the “Bacterial Biotransformation” value [23] was “Compound NOT metabolized” and the “Bacterial Biotransformation” value [24] was “Compound NOT metabolized”. The “Bacterial Biotransformation” value [25] was “Compound NOT metabolized”, the “Bacterial Biotransformation” value [26] was “Compound NOT metabolized” and the “Bacterial Biotransformation” value [27] was “Compound NOT metabolized”. For the same compound, the “Bacterial Biotransformation” value [28] was “Compound NOT metabolized”, the “Bacterial Biotransformation” value [29] was “Compound NOT metabolized” and the “Bacterial Biotransformation” value [30] was “Compound NOT metabolized”.

In the case of CCOC(=O)C1=C(COCCN)NC(C)=C(C(=O)OC)C1c1ccccc1Cl (stereo not drawn) [AMLODIPINE], the “Bacterial Biotransformation” value [1] is reported as “Compound NOT metabolized”, the “Bacterial Biotransformation” value [2] is reported as “Compound NOT metabolized” and the “Bacterial Biotransformation” value [3] is reported as “Compound NOT metabolized”. For the same compound, the “Bacterial Biotransformation” value [4] was “Compound NOT metabolized”, the “Bacterial Biotransformation” value [5] was “Compound NOT metabolized” and the “Bacterial Biotransformation” value [6] was “Compound NOT metabolized”. The “Bacterial Biotransformation” value [7] was “Compound NOT metabolized”, the “Bacterial Biotransformation” value [8] was “Compound NOT metabolized” and the “Bacterial Biotransformation” value [9] was “Compound NOT metabolized”. The “Bacterial Biotransformation” value [10] was “Compound NOT metabolized”, the “Bacterial Biotransformation” value [11] was “Compound metabolized” and the “Bacterial Biotransformation” value [12] was “Compound NOT metabolized”. The “Bacterial Biotransformation” value [13] was “Compound NOT metabolized”, the “Bacterial Biotransformation” value [14] was “Compound NOT metabolized” and the “Bacterial Biotransformation” value [15] was “Compound NOT metabolized”. For the same compound, the “Bacterial Biotransformation” value [16] was “Compound NOT metabolized”, the “Bacterial Biotransformation” value [17] was “Compound NOT metabolized” and the “Bacterial Biotransformation” value [19] was “Compound NOT metabolized”. For the same compound, the “Bacterial Biotransformation” value [20] was “Compound NOT metabolized”, the “Bacterial Biotransformation” value [21] was “Compound NOT metabolized” and the “Bacterial Biotransformation” value [22] was “Compound NOT metabolized”. The “Bacterial Biotransformation” value [23] was “Compound NOT metabolized”, the “Bacterial Biotransformation” value [24] was “Compound NOT metabolized” and the “Bacterial Biotransformation” value [25] was “Compound NOT metabolized”. The “Bacterial Biotransformation” value [26] was “Compound NOT metabolized”, the “Bacterial Biotransformation” value [27] was “Compound NOT metabolized” and the “Bacterial Biotransformation” value [29] was “Compound NOT metabolized”. The “Bacterial Biotransformation” value [30] was “Compound NOT metabolized”.
